The text below walks through data of patent publication US20150119429A1, “Iron Chelators as HIV-1 Inhibitors” (Howard University, priority 2012, published 2015).

Broadly, the IC50 is the midpoint of a concentration-inhibition curve.

Data set [1] has as its system CEM cells. Put plainly: Toxicity of iron chelators in CEM cells (calcein-AM fluorescence). The format is cell-based, human. The settings on record: about 24 h at about 37° C., micromolar concentrations, FIG. 3.
Data set [2] deals with heme oxygenase-1 gene. Put plainly: Induction of heme oxygenase-1 expression in THP-1 cells (real-time PCR). The following applies: about 24 hours of treatment, DDCt, hemin at 100 μM, FIG. 6. The format is cell-based, human.
Data set [3] concerns VSVG-pseudotyped pNL4-3.Luc.R-E-(HIV-1 Luc) virus. As to the kind of experiment: One round of HIV-1-Luc replication in CEM cells (luciferase activity). In kind it is cell-based. The settings on record: for IC50: Human immunodeficiency virus 1, CCRF-CEM, CEM cells infected about 18 h, treated about 24 h at about 37° C., FIG. 2, read-out: IC50 for inhibition of HIV-1 replication; for inhibition of HIV-1 replication compared with Bp4eT: CEM cells infected 18 h, treated 24 h at 37° C., FIG. 8.

In data set [4] the test system is cellular iron in THP-1 cells. Put plainly: Cellular iron chelation in THP-1 cells (calcein fluorescence). The format is cell-based, human. The following applies: THP-1 cells treated with FeS, loaded with calcein-AM, versus control SIH compound, FIG. 4. How it is done:
To assess iron chelating efficiency, human acute monocytic leukemia cell line (THP-1) cells were untreated (control) or treated with FeS for about 1 hr at about 37° C., and then loaded with iron sensor, calcein-AM for about 10 min at about 37° C. After washing with phosphate buffer solution (PBS), cells were treated with various iron chelators. In Figure. 4, calcein fluorescence was measured in a real-time PCR machine as a function of time. Fractional fluorescence (F-Fi)/Fi is proportional to the amount of chelatable iron.

Data set [5] has as its system IkB gene. Put plainly: Induction of IkB gene expression in 293T cells (real-time PCR). In kind it is cell-based, human. The following applies: about 24 hours of treatment, DDCt vs DMSO, FIG. 5. Background: Quantitative PCR measures a nucleic acid by following its amplification.

Turning to `O=C(Cc1ccccc1)c1ccccn1` [PPY, 2-phenyl-1-pyridin-2yl-ethanone, reference compound], the toxicity result in data set [1] was “Neither PPY, nor representative PpYeT and PpYaT compounds show significant toxicity”.

Take hemin [reference compound]: the “expression of heme oxygenase-1 (HO-1)” value in data set [2] is recorded as “induced expression of HO-1”.

For the compound `CCNC(=S)N/N=C(\c1ccccc1)c1ccccn1` [Bp4-eT, reference compound], the IC50 in data set [3] turned out to be 7.5 nM.

Turning to `C=CCNC(=S)N/N=C(\Cc1ccccc1)c1ccccn1` [PpYaT], in data set [3], the “inhibition of HIV-1 replication compared with Bp4eT” value was “inhibit HIV-1 replication comparable to the effect of previously studied Bp4eT chelator” and the IC50 stood at 14 nM. Also, the toxicity entry in data set [1] is “Neither PPY, nor representative PpYeT and PpYaT compounds show significant toxicity”. Besides, the “iron chelating efficiency (fractional calcein fluorescence)” value in data set [4] is “better than the control SIH compound”. In data set [5], the “expression of IkB” value was “induce expression of IkB”. In addition, the “expression of heme oxygenase-1 (HO-1)” value in data set [2] is “induce expression of heme oxygenase-1 (HO-1)”.

Take `CCNC(=S)N/N=C(\Cc1ccccc1)c1ccccn1` [PpYeT]: in data set [3], the “inhibition of HIV-1 replication compared with Bp4eT” value was “inhibit HIV-1 replication comparable to the effect of previously studied Bp4eT chelator” and the IC50 was found to be 14 nM. The toxicity entry in data set [1] was “Neither PPY, nor representative PpYeT and PpYaT compounds show significant toxicity”. Moreover, the “iron chelating efficiency (fractional calcein fluorescence)” value in data set [4] was “better than the control SIH compound”. Also, in data set [5], the “expression of IkB” value is recorded as “induce expression of IkB”. Also, the “expression of heme oxygenase-1 (HO-1)” value in data set [2] is reported as “induce expression of heme oxygenase-1 (HO-1)”.
